Test results from PubChem BioAssay AID248 (DTP/NCI, 2004).
Several values for one entry are separate records, joined by “and”; a condition that tells them apart may be missing. Identical values can stand only once. Toxic doses and inconclusive results are not listed.

Tested on: L1210 leukemia ip in BDF1 mice, survival T/C
Assay: NCI In Vivo Anticancer Drug Screen. Data for tumor model L1210 Leukemia (intraperitoneal) in B6D2F1 (BDF1) mice
Conditions: endpoint: mean survival time, higher = longer survival
Summary of the method: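 Tumor was transplanted into mice, which were then dosed with test compound or vehicle alone. Survival was recorded for each group, and the treated figure was expressed relative to the control figure.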

[1] = dose: 100.0 mg/kg/injection, schedule: Q04DX003 (ip), vehicle: saline with Tween-80
[2] = dose: 50.0 mg/kg/injection, schedule: Q01DX001 (ip), vehicle: carboxymethylcellulose (CMC)
[3] = dose: 200.0 mg/kg/injection, schedule: Q01DX001 (ip), vehicle: carboxymethylcellulose (CMC)

Question: How did the T/C (dose: 100.0 mg/kg/injection, schedule: Q01DX009 (ip), vehicle: saline with Tween-80) turn out when `Brc1ccc(-c2nc3ccccc3[nH]2)cc1` was run?
Answer: Its T/C is 93 % of control.

Question: What about the T/C [1] of the same compound?
Answer: Its T/C is 101 % of control.

Question: And the T/C (dose: 200.0 mg/kg/injection, schedule: Q01DX009 (ip), vehicle: saline with Tween-80)?
Answer: Its T/C is 93 % of control.

Question: And the T/C (dose: 200.0 mg/kg/injection, schedule: Q04DX003 (ip), vehicle: saline with Tween-80)?
Answer: The T/C was 104 % of control.

Question: What about the T/C (dose: 400.0 mg/kg/injection, schedule: Q01DX009 (ip), vehicle: saline with Tween-80) of the same compound?
Answer: Its T/C is 93 % of control.

Question: And the T/C (dose: 400.0 mg/kg/injection, schedule: Q04DX003 (ip), vehicle: saline with Tween-80)?
Answer: Its T/C is 101 % of control.

Question: Which T/C (dose: 12.5 mg/kg/injection, schedule: Q01DX001 (ip), vehicle: saline) does the source give for `NCCC1CNCCN1.[Cl][Pd]([Cl])([Cl])[Cl]` (centres undefined) here?
Answer: Its T/C is 108 % of control.

Question: And the T/C (dose: 25.0 mg/kg/injection, schedule: Q01DX001 (ip), vehicle: saline)?
Answer: The T/C was 108 % of control.

Question: And the T/C (dose: 50.0 mg/kg/injection, schedule: Q01DX001 (ip), vehicle: saline)?
Answer: Its T/C is 103 % of control.

Question: And the T/C (dose: 100.0 mg/kg/injection, schedule: Q01DX001 (ip), vehicle: DMSO)?
Answer: The T/C was 98 % of control.

Question: Which results are given for `CC12CCC(C1)C(C)(C)/C2=N\O` (centres undefined)?
Answer: T/C (dose: 100.0 mg/kg/injection, schedule: Q01DX009 (ip), vehicle: Klucel (hydroxypropylcellulose) (HPC)): 96 % of control; T/C (dose: 100.0 mg/kg/injection, schedule: Q04DX002 (ip), vehicle: Klucel (hydroxypropylcellulose) (HPC)): 100 % of control; T/C (dose: 200.0 mg/kg/injection, schedule: Q01DX009 (ip), vehicle: Klucel (hydroxypropylcellulose) (HPC)): 88 % of control; T/C (dose: 200.0 mg/kg/injection, schedule: Q04DX002 (ip), vehicle: Klucel (hydroxypropylcellulose) (HPC)): 96 % of control; T/C (dose: 400.0 mg/kg/injection, schedule: Q01DX009 (ip), vehicle: Klucel (hydroxypropylcellulose) (HPC)): 92 % of control; T/C (dose: 400.0 mg/kg/injection, schedule: Q04DX002 (ip), vehicle: Klucel (hydroxypropylcellulose) (HPC)): 96 % of control

Question: With `C=CCCCCCCCCC(=O)NCc1ccncc1` as the compound, how does the T/C [1] read?
Answer: Its T/C is 90 % of control.

Question: How did the T/C (dose: 75.0 mg/kg/injection, schedule: Q01DX001 (ip), vehicle: other) turn out when `CC1(O)CC(=O)C2C3C=CC(C3)C21` (centres undefined) was run?
Answer: Its T/C is 98 % of control.

Question: And the T/C (dose: 150.0 mg/kg/injection, schedule: Q01DX001 (ip), vehicle: other)?
Answer: Its T/C is 104 % of control.

Question: How did the T/C (dose: 1.58 mg/kg/injection, schedule: Q01DX009 (ip), vehicle: Klucel (hydroxypropylcellulose) (HPC)) turn out when `CC1CN1C(=O)Nc1cccc2c(NC(=O)N3CC3C)cccc12` (centres undefined) was run?
Answer: The T/C was 95 % of control.

Question: And the T/C (dose: 2.38 mg/kg/injection, schedule: Q01DX009 (ip), vehicle: Klucel (hydroxypropylcellulose) (HPC))?
Answer: The T/C was 101 % of control.

Question: What about the T/C (dose: 12.34 mg/kg/injection, schedule: Q01DX009 (ip), vehicle: Klucel (hydroxypropylcellulose) (HPC)) of the same compound?
Answer: Its T/C is 122 % of control.

Question: What about the T/C (dose: 12.5 mg/kg/injection, schedule: Q04DX003 (ip), vehicle: Klucel (hydroxypropylcellulose) (HPC)) of the same compound?
Answer: The T/C was 117 % of control.

Question: What about the T/C (dose: 35.0 mg/kg/injection, schedule: Q04DX003 (ip), vehicle: Klucel (hydroxypropylcellulose) (HPC)) of the same compound?
Answer: Its T/C is 105 % of control.

Question: And the T/C (dose: 50.0 mg/kg/injection, schedule: Q01DX001 (ip), vehicle: Klucel (hydroxypropylcellulose) (HPC))?
Answer: Its T/C is 118 % of control and 121 % of control.

Question: And the T/C (dose: 50.0 mg/kg/injection, schedule: Q04DX003 (ip), vehicle: Klucel (hydroxypropylcellulose) (HPC))?
Answer: Its T/C is 157 % of control.

Question: What about the T/C (dose: 55.0 mg/kg/injection, schedule: Q04DX003 (ip), vehicle: Klucel (hydroxypropylcellulose) (HPC)) of the same compound?
Answer: Its T/C is 207 % of control.

Question: And the T/C (dose: 75.0 mg/kg/injection, schedule: Q01DX001 (ip), vehicle: Klucel (hydroxypropylcellulose) (HPC))?
Answer: Its T/C is 119 % of control.

Question: And the T/C (dose: 75.0 mg/kg/injection, schedule: Q04DX003 (ip), vehicle: Klucel (hydroxypropylcellulose) (HPC))?
Answer: The T/C was 117 % of control.

Question: What about the T/C (dose: 85.0 mg/kg/injection, schedule: Q01DX009 (ip), vehicle: Klucel (hydroxypropylcellulose) (HPC)) of the same compound?
Answer: The T/C was 89 % of control.

Question: What about the T/C (dose: 85.0 mg/kg/injection, schedule: Q04DX003 (ip), vehicle: Klucel (hydroxypropylcellulose) (HPC)) of the same compound?
Answer: The T/C was 116 % of control.

Question: And the T/C (dose: 170.0 mg/kg/injection, schedule: Q04DX003 (ip), vehicle: Klucel (hydroxypropylcellulose) (HPC))?
Answer: The T/C was 118 % of control.

Question: And the T/C (dose: 200.0 mg/kg/injection, schedule: Q01DX001 (ip), vehicle: Klucel (hydroxypropylcellulose) (HPC))?
Answer: The T/C was 88 % of control.

Question: Which T/C (dose: 25.0 mg/kg/injection, schedule: Q04DX002 (ip), vehicle: Klucel (hydroxypropylcellulose) (HPC)) does the source give for `CCSc1ccc2c(cc1=O)C(NC(C)=O)CCc1cc(OC)c(OC)c(OC)c1-2` (centres undefined) here?
Answer: The T/C was 105 % of control.

Question: What about the T/C (dose: 50.0 mg/kg/injection, schedule: Q04DX002 (ip), vehicle: Klucel (hydroxypropylcellulose) (HPC)) of the same compound?
Answer: The T/C was 102 % of control.

Question: `S=c1nc[nH]c2c1ncn2CCc1ccccc1` was tested. Which T/C [2] did it give?
Answer: Its T/C is 115 % of control.

Question: And the T/C (dose: 100.0 mg/kg/injection, schedule: Q01DX001 (ip), vehicle: carboxymethylcellulose (CMC))?
Answer: The T/C was 101 % of control.

Question: And the T/C [3]?
Answer: The T/C was 112 % of control.

Question: And the T/C (dose: 400.0 mg/kg/injection, schedule: Q01DX001 (ip), vehicle: carboxymethylcellulose (CMC))?
Answer: Its T/C is 95 % of control.

Question: Which results are given for `COC1=C(NC(C)c2ccccc2)C(=O)C(OC)=C(NC(C)c2ccccc2)C1=O` (centres undefined)?
Answer: T/C [2]: 96 % of control; T/C [3]: 89 % of control

Question: How did the T/C (dose: 100.0 mg/kg/injection, schedule: Q01DX001 (ip), vehicle: saline) turn out when `Cc1cccc(/C=C2/SC(=S)N(c3ccccc3)C2=O)c1` was run?
Answer: Its T/C is 100 % of control.

Question: And the T/C (dose: 200.0 mg/kg/injection, schedule: Q01DX001 (ip), vehicle: saline)?
Answer: Its T/C is 98 % of control.

Question: What about the T/C (dose: 400.0 mg/kg/injection, schedule: Q01DX001 (ip), vehicle: saline) of the same compound?
Answer: The T/C was 105 % of control.
